Laboratory results reported in PMC5050486 (Scientific Reports, 2016).
“Also recorded” adds a separate entry of the source. Where a name gives a salt, the structure may show the parent alone. Read-outs that look alike come from different tables or passages of the source. Where a SMILES comes first, the peptide text is derived from it. Where no end group is shown, it is not given here.

Legend:
anthrax LF = anthrax LF (Bacillus anthracis, UniProt P15917); assay: biochemical; conditions: for inhibition at 33 µM: read-out: Percent Inhibition with 33 μM of drug, LF
human furin = target: T1, human furin (Homo sapiens, UniProt P09958); assay: Host protease FRET test, furin; type: biochemical; conditions: for inhibition at 33 µM: read-out: Percent Inhibition with 33 μM of drug, Furin
T1 construct: purchased New England Biolabs

caspase-3 = target: T2, caspase-3 (Homo sapiens, UniProt P42574); assay: Host protease FRET test, caspase-3; type: biochemical; conditions: for inhibition at 33 µM: read-out: Percent Inhibition with 33 μM of drug, Casp 3
T2 construct: purchased BioVision
T2 sequence (P42574 29-277): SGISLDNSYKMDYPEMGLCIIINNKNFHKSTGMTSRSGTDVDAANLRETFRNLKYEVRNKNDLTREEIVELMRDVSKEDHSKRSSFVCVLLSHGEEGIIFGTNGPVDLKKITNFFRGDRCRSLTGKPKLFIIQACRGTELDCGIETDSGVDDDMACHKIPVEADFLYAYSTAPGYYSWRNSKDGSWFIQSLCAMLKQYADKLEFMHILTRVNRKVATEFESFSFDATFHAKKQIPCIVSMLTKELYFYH

[1] = cited from earlier work
[2] = system: Cholera toxin treated RAW264.7 cells; type: cell-based, mouse
[3] = system: Pseudomonas aeruginosa exotoxin A treated RAW264.7 cells; type: cell-based, mouse
calpain 1 = target: T3, calpain 1 (Homo sapiens, UniProt P07384); assay: Host protease FRET test, calpain; type: biochemical; conditions: for inhibition at 33 µM: read-out: Percent Inhibition with 33 μM of drug, Calpain
T3 construct: purchased BioVision
T3 sequence (P07384 1-714): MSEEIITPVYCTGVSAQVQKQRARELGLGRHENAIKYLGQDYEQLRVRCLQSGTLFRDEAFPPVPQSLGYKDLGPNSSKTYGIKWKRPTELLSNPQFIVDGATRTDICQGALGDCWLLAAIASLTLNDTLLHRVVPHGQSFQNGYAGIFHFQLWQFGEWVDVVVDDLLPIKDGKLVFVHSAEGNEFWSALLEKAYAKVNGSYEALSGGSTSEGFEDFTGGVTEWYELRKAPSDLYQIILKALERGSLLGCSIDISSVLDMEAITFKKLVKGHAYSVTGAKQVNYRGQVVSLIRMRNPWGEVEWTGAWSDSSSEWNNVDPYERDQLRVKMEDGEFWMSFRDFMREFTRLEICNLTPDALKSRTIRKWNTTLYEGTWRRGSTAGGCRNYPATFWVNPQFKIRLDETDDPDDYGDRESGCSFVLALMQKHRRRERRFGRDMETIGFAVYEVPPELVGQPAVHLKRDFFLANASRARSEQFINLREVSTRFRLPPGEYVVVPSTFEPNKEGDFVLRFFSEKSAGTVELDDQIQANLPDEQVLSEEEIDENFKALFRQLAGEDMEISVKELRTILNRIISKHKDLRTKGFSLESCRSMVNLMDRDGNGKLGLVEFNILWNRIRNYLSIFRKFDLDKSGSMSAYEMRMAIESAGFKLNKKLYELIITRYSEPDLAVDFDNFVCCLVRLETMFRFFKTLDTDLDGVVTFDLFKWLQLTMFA
T3 sequence (P04632 1-268 partner): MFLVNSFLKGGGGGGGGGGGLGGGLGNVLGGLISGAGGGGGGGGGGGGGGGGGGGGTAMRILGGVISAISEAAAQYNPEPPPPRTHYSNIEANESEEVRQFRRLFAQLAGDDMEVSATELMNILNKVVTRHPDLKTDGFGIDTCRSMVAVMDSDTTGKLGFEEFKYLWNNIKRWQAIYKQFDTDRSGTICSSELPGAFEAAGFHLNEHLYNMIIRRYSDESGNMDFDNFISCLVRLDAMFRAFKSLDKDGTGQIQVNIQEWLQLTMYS

cathepsin B = cathepsin B (Homo sapiens, UniProt P07858); assay: Host protease FRET test, cathepsin B; type: biochemical; conditions: 33 μM drug, N/I = no FRET inhibition; for inhibition at 33 µM: read-out: Percent Inhibition with 33 μM of drug, Cath B
caspase-1 = target: T4, caspase-1 (Homo sapiens, UniProt P29466); assay: Host protease FRET test, caspase-1; type: biochemical; conditions: read-out: Percent Inhibition with 33 μM of drug, Casp 1
T4 construct: purchased BioVision
T4 sequence (P29466 120-404): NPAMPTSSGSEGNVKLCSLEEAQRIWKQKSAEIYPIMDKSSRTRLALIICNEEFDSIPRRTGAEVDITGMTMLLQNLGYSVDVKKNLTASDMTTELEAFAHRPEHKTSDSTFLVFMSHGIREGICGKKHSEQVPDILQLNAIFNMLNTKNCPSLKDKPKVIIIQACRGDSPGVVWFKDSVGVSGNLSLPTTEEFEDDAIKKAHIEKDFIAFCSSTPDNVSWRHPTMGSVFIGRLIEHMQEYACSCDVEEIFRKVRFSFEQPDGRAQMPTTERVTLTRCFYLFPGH

[4] = system: LF-PA treated mouse macrophage RAW264.7 cells; type: cell-based
[5] = system: LF-PA63 treated RAW264.7 cells; type: cell-based, mouse
[6] = 33 μM drug, FRET, N/I = no FRET inhibition

T1 sequence (P09958 108-794): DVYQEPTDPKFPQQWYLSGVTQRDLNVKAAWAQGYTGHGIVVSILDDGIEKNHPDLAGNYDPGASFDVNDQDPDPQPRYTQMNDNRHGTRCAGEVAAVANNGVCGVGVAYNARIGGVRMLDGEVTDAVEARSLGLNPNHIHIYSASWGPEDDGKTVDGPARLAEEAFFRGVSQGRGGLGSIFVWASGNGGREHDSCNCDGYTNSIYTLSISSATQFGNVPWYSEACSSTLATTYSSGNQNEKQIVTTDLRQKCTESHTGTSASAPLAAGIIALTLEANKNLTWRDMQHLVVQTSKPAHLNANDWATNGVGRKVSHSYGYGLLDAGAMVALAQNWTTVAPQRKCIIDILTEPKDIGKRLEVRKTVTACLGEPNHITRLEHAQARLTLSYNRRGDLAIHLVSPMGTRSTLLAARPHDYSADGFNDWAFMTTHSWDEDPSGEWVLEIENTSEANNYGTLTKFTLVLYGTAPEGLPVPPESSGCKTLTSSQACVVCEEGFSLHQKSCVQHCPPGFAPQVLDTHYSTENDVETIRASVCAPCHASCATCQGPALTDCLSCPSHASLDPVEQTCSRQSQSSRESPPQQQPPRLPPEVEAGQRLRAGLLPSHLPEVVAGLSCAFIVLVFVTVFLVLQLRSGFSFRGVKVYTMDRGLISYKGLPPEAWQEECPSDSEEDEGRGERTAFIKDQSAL
anthrax LF, sequence (P15917 34-809 limits assumed): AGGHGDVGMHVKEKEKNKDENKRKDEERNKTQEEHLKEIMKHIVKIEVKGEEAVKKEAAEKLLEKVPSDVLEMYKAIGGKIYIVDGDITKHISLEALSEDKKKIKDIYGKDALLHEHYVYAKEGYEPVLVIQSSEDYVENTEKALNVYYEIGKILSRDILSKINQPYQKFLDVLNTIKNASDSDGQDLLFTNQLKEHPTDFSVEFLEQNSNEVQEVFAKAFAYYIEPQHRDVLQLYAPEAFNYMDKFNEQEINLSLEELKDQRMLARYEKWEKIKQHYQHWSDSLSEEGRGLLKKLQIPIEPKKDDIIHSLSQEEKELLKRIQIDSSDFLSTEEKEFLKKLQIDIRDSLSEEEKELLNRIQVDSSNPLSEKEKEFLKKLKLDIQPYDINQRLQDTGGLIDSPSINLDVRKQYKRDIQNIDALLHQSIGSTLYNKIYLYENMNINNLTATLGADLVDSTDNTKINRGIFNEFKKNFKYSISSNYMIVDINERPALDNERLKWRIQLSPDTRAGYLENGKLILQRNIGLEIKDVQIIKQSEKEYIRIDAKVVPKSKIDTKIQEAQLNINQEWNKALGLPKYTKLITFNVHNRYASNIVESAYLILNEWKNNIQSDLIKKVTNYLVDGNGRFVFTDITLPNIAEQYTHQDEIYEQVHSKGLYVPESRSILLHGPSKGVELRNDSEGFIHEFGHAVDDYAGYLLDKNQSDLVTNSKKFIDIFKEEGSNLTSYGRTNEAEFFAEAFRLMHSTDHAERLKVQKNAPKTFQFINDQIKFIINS

PVRRRRRPRVSRRRRRRGGRRRR [Salmon Sperm Protamine (11-33)]
IC50 (anthrax LF): 10000 ± 40 nM
inhibition at 33 µM (anthrax LF): 99 ± 0.2%
inhibition at 33 µM (human furin; [6]): 86 ± 1.2%

CCCCCCCCCCCCCCCC(=O)OC[C@H](O)[C@H]1OC(=O)C(O)=C1O [Ascorbic acid 6-palmitate]
inhibition at 33 µM (caspase-3; [6]): 88 ± 2.9%
Critical Micelle Concentration (CMC) [1]: 0.8 mM
Protection against CT-mediated cell killing [2]: substantial protection
IC50 (anthrax LF): 460 ± 260 nM
inhibition at 33 µM (anthrax LF): 99 ± 1.9%
Protection against PE-mediated cell killing [3]: substantial protection
inhibition at 33 µM (human furin; [6]): 16 ± 0.67%
inhibition at 33 µM (calpain 1; [6]): 24 ± 19.4%
Percent Inhibition with 33 μM of drug, Cath B (cathepsin B): N/I
inhibition at 33 µM (caspase-1; [6]): 18 ± 1.12%
Protection against LF-PA mediated cell killing [4]: complete protection

PVRRRRRPRVSR [Salmon Sperm Protamine (11-22)]
IC50 (anthrax LF): 5000 ± 130 nM
inhibition at 33 µM (anthrax LF): 95 ± 0.1%
inhibition at 33 µM (human furin; [6]): 84 ± 33%

CSCC[C@H](NC(=O)[C@H](C)NC(=O)[C@@H](N)CCCNC(=N)N)C(=O)N[C@@H](CCCNC(=N)N)C(=O)N[C@@H](CS)C(=O)N[C@@H](CS)C(=O)N[C@@H](CCCNC(=N)N)C(=O)N1CCC[C@H]1C(=O)N[C@@H](CCCNC(=N)N)C(=O)N[C@@H](Cc1ccc(O)cc1)C(=O)N[C@@H](CCCNC(=N)N)C(=O)N1CCC[C@H]1C(=O)N[C@@H](CCCNC(=N)N)C(=O)N[C@@H](CS)C(=O)N[C@@H](CCCNC(=N)N)C(=O)N[C@@H](CCCNC(=N)N)C(=O)N[C@@H](Cc1c[nH]cn1)C(=O)O [Human Sperm Protamine (35-51)] (H-RAMRCCRPRYRPRCRRH-OH; N-terminus and C-terminus assumed)
inhibition at 33 µM (anthrax LF): 55 ± 0.9%

MARYRCCRSQSRSRYYRQRQRSRRRRRRSCQTRRRAMRCCRPRYRPRCRRH (cysteines drawn unpaired) [Human Sperm Protamine (1-51)]
inhibition at 33 µM (anthrax LF): 88 ± 1.2%
inhibition at 33 µM (human furin; [6]): 97 ± 1.7%

CCCCCCCCCCCC[N+](C)(C)CCOc1ccccc1 [Domiphen bromide]
Percent Inhibition with 33 μM of drug, Casp 3 (caspase-3; [6]): N/I
IC50 (anthrax LF): 290 ± 30 nM
inhibition at 33 µM (anthrax LF): 103 ± 0.82%
inhibition at 33 µM (human furin; [6]): 7 ± 6.64%
Percent Inhibition with 33 μM of drug, Calpain (calpain 1; [6]): N/I
inhibition at 33 µM (cathepsin B): 23 ± 1.5%
inhibition at 33 µM (caspase-1; [6]): 17 ± 2.17%

CCOc1nc2cccc(C(=O)OC(C)OC(=O)OC3CCCCC3)c2n1Cc1ccc(-c2ccccc2-c2nnn[nH]2)cc1 (stereo not shown) [Candesartan cilexetil]
Percent Inhibition with 33 μM of drug, Casp 3 (caspase-3; [6]): N/I
IC50 (anthrax LF): 400 ± 20 nM
inhibition at 33 µM (anthrax LF): 100 ± 0.07%
inhibition at 33 µM (human furin; [6]): 88 ± 0.12%
Percent Inhibition with 33 μM of drug, Calpain (calpain 1; [6]): N/I
inhibition at 33 µM (cathepsin B): 10 ± 3.1%
inhibition at 33 µM (caspase-1; [6]): 16 ± 0.1%

CCCCCCCCCCCCOS(=O)(=O)O [Sodium lauryl sulfate]
inhibition at 33 µM (caspase-3): 83 ± 2.7%
Critical Micelle Concentration (CMC) [1]: 8 mM
IC50 (anthrax LF): 2900 ± 80 nM
inhibition at 33 µM (anthrax LF): 93 ± 0.57%
inhibition at 33 µM (human furin): 2 ± 4.56%
inhibition at 33 µM (calpain 1): 95 ± 6.02%
inhibition at 33 µM (caspase-1): 7 ± 3.06%

MPRRRRSSSRPVRRRRRPRVSR [Salmon Sperm Protamine (1-22)]
IC50 (anthrax LF): 1000 ± 40 nM
inhibition at 33 µM (anthrax LF): 98 ± 0.6%
inhibition at 33 µM (human furin; [6]): 91 ± 1.8%

MPRRRRSSSRPVRRRRRPRVSRRRRRRGGRRRR [Salmon Sperm Protamine]
inhibition at 33 µM (caspase-3; [6]): 87 ± 2.8%
Protection against cell death induced by LF and PA63 [5]: reduces cellular sensitivity; also recorded: effectively protected all cells
Protection against CT-mediated cell killing [2]: substantial protection
inhibition at 33 µM (anthrax LF): 107 ± 1.4%
Protection against PE-mediated cell killing [3]: substantial protection
inhibition at 33 µM (human furin; [6]): 96 ± 1.2%
inhibition at 33 µM (cathepsin B): 65 ± 0.5%
Protection against LF-PA mediated cell killing [4]: complete protection

RRRRRGGRRRR [Salmon Sperm Protamine (23-33)]
IC50 (anthrax LF): 15000 ± 10 nM
inhibition at 33 µM (anthrax LF): 93 ± 2.4%
inhibition at 33 µM (human furin; [6]): 150 ± 5.3%

CCCCC(CC)COC(=O)CC(C(=O)OCC(CC)CCCC)S(=O)(=O)O (stereo not shown) [Docusate sodium]
Percent Inhibition with 33 μM of drug, Casp 3 (caspase-3; [6]): N/I
IC50 (anthrax LF): 670 ± 50 nM
inhibition at 33 µM (anthrax LF): 95 ± 0.28%
inhibition at 33 µM (human furin; [6]): 69 ± 0.13%
inhibition at 33 µM (calpain 1; [6]): 130 ± 0.19%
Percent Inhibition with 33 μM of drug, Cath B (cathepsin B): N/I
inhibition at 33 µM (caspase-1; [6]): 35 ± 0.01%

CCCCCCCCCCCCc1ccccc1S(=O)(=O)O [Sodium dodecyl benzenesulfonate]
inhibition at 33 µM (caspase-3; [6]): 77 ± 2.5%
IC50 (anthrax LF; read-out: LF IC50): 590 ± 80 nM
inhibition at 33 µM (anthrax LF): 104 ± 0.4%
inhibition at 33 µM (human furin; [6]): 6 ± 3.34%
inhibition at 33 µM (calpain 1; [6]): 26 ± 7.01%
inhibition at 33 µM (cathepsin B): 96 ± 2.5%
inhibition at 33 µM (caspase-1; [6]): 14 ± 2.06%

MPRRRRSSSR [Salmon Sperm Protamine (1-10)]
IC50 (anthrax LF): 298000 ± 10 nM
inhibition at 33 µM (anthrax LF): 28 ± 1%
Percent Inhibition with 33 μM of drug, Furin (human furin; [6]): N/I

CSCC[C@H](N)C(=O)N[C@@H](C)C(=O)N[C@@H](CCCNC(=N)N)C(=O)N[C@@H](Cc1ccc(O)cc1)C(=O)N[C@@H](CCCNC(=N)N)C(=O)N[C@@H](CS)C(=O)N[C@@H](CS)C(=O)N[C@@H](CCCNC(=N)N)C(=O)N[C@@H](CO)C(=O)N[C@@H](CCC(N)=O)C(=O)N[C@@H](CO)C(=O)N[C@@H](CCCNC(=N)N)C(=O)N[C@@H](CO)C(=O)N[C@@H](CCCNC(=N)N)C(=O)N[C@@H](Cc1ccc(O)cc1)C(=O)N[C@@H](Cc1ccc(O)cc1)C(=O)N[C@@H](CCCNC(=N)N)C(=O)O [Human Sperm Protamine (1-17)] (H-MARYRCCRSQSRSRYYR-OH; N-terminus and C-terminus assumed)
inhibition at 33 µM (anthrax LF): 37 ± 0.7%

QRQRSRRRRRRSCQTRR [Human Sperm Protamine (18-34)]
IC50 (anthrax LF): 24000 ± 150 nM
inhibition at 33 µM (anthrax LF): 72 ± 2.1%

CCCCCCCCCCCCCCCC[N+](C)(C)Cc1ccccc1 [Cetalkonium chloride]
Percent Inhibition with 33 μM of drug, Casp 3 (caspase-3; [6]): N/I
IC50 (anthrax LF): 160 ± 90 nM
inhibition at 33 µM (anthrax LF): 106 ± 1.21%
inhibition at 33 µM (human furin; [6]): 8 ± 6.1%
inhibition at 33 µM (calpain 1; [6]): 68 ± 14.8%
Percent Inhibition with 33 μM of drug, Cath B (cathepsin B): N/I
inhibition at 33 µM (caspase-1; [6]): 32 ± 1.17%
